We go through 20 compounds from doi:10.1101/2024.06.05.597555v1 (biorxiv, 2024).

SMILES strings stand for the structures. Read-outs that look alike come from different tables or passages of the source.

Data set [1] has as its target T1, NS2B(H)-NS3pro (DENV-2 NS2B-NS3 protease) (Dengue virus 2 Thailand/NGS-C/1944, UniProt P14340).
T1 sequence (P14340 1394-1433 limits assumed): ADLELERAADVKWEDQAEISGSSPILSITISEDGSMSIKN
T1 sequence (P14340 1476-1660 limits assumed): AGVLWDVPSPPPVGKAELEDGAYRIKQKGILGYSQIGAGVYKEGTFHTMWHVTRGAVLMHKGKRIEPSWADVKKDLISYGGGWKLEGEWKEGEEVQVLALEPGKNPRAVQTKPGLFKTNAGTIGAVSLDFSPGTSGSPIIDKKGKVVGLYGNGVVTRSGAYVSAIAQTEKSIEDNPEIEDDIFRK
Nature of the data set: biochemical. To be noted: read-out: % inhibition.

In a further data set the test system is DENV-2. In words: microbe, parasite or virus in culture. To be noted: Dengue virus, DENV2, Vero, 48 h, read-out: % inhibition.
Data set [2] addresses T1, NS2B(H)-NS3pro (DENV-2 NS2B-NS3 protease). Nature of the data set: biochemical. To be noted: read-out: % inhibition. This is another data set of the same source.
The target is the same in data set [3]. Nature of the data set: fluorometric protease assay, AMC substrate. In kind it is biochemical. To be noted: pH 7.5, HEPES, CHAPS; substrate Bz-nKRR-AMC.
Data set [4] shares this target. In words: fluorometric protease assay, AMC substrate. In kind it is biochemical. To be noted: read-out: % inhibition at 50 μM.
In data set [5] the target is T2, DENV2proHeLa NS2B-NS3 protease (Dengue virus 2 Thailand/16681/84, UniProt P29990). In words: cell-based.
T2 sequence (P29990 1476-2093 limits assumed): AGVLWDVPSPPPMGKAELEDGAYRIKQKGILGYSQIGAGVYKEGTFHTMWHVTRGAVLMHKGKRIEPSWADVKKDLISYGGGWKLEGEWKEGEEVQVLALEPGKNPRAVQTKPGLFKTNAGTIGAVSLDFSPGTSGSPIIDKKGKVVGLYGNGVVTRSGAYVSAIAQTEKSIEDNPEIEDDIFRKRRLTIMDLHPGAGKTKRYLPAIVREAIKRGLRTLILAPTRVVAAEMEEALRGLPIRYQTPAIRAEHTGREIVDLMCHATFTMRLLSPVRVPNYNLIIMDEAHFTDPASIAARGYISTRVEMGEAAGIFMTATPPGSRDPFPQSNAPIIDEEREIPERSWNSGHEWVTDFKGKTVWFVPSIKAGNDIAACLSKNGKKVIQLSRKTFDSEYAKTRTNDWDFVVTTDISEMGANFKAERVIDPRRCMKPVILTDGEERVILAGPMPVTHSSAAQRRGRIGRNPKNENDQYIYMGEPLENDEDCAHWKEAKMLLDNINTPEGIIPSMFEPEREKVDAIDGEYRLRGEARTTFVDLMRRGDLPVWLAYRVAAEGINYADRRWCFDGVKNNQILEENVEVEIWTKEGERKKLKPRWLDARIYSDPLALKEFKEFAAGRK
T2 sequence (P29990 1346-1475 partner limits assumed): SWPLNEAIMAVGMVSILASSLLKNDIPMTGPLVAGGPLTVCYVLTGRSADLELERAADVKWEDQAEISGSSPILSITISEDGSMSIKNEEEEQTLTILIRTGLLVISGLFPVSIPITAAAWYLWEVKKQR
Data set [6] concerns the target T1, NS2B(H)-NS3pro (DENV-2 NS2B-NS3 protease). Nature of the data set: biochemical. To be noted: read-out: % inhibition. The source holds these as a separate data set.
Data set [7] has as its target T2, DENV2proHeLa NS2B-NS3 protease. Nature of the data set: cell-based. On the set-up: species or system DENV2proHeLa (HeLa). Particulars: HeLa, read-out: % inhibition.
Data set [8] is described as follows: in vitro. Particulars: human, denv2prohela cells. More on the design: species or system DENV2proHeLa (HeLa).
Data set [9] has as its target T2, DENV2proHeLa NS2B-NS3 protease. In words: cell-based. On the set-up: species or system DENV2proHeLa (HeLa). To be noted: HeLa, read-out: % inhibition. The source holds these as a separate data set.
Data set [10] is described as follows: in vitro. More on the design: species or system DENV2proHeLa (HeLa). Particulars: human, denv2prohela cells. The source holds these as a separate data set.
Data set [11] addresses T1, NS2B(H)-NS3pro (DENV-2 NS2B-NS3 protease). Particulars: read-out: IC50 (C7.5-HEPES AMC); AMC substrate, HEPES pH 7.5, CHAPS; inhibitor.
Data set [12] has as its target T2, DENV2proHeLa NS2B-NS3 protease. Nature of the data set: cell-based. More on the design: species or system DENV2proHeLa (HeLa). Particulars: read-out: DENV2proHeLa EC50; inhibitor.
Data set [13] deals with T1, NS2B(H)-NS3pro (DENV-2 NS2B-NS3 protease). Nature of the data set: biochemical. Particulars: read-out: % inhibition. This is another data set of the same source.
For data set [14] the target is unchanged. Particulars: read-out: IC50 (C7.5-HEPES AMC); AMC substrate, HEPES pH 7.5, CHAPS; inhibitor. The source holds these as a separate data set.
Data set [15] deals with T2, DENV2proHeLa NS2B-NS3 protease. In words: cell-based. More on the design: species or system DENV2proHeLa (HeLa). Particulars: HeLa, read-out: % inhibition. The source holds these as a separate data set.
Data set [16] has the same target. Nature of the data set: cell-based. On the set-up: species or system DENV2proHeLa (HeLa).
A short description of data set [17]: in vitro. On the set-up: species or system DENV2proHeLa (HeLa). To be noted: human, denv2prohela cells. The source holds these as a separate data set.
Data set [18] addresses T1, NS2B(H)-NS3pro (DENV-2 NS2B-NS3 protease). In words: biochemical. To be noted: read-out: % inhibition. The source holds these as a separate data set.
Data set [19] concerns the target T2, DENV2proHeLa NS2B-NS3 protease. Nature of the data set: cell-based. More on the design: species or system DENV2proHeLa (HeLa). To be noted: HeLa, read-out: % inhibition. The source holds these as a separate data set.
Data set [20] can be described thus: in vitro. To be noted: human, denv2prohela cells. On the set-up: species or system DENV2proHeLa (HeLa). The source holds these as a separate data set.

On to `CCCCCC(=O)N[C@H](C(=O)NCc1ccc(NC(=N)N)cc1)c1ccc(OCc2ccccc2)cc1` [NK-189], for which the inhibition (commonly the drop in the measured response relative to a control, in per cent) at 50 µM in [1] amounted to 97%; in data set [2], 95%. Further, the inhibition at 25 µM with DENV-2 is 21%.

For `NC(=O)c1cccc(NC(=O)[C@@H](NC(=O)c2ccc(Oc3ccccc3)cc2)c2ccc(OCc3ccccc3)cc2)c1` [compound 1], the midpoint of inhibition in data set [3], the IC50, lay at 13 µM.

For the compound `CCCCCC(=O)N[C@H](C(=O)Nc1cccc(C(N)=O)c1)c1ccc(OCc2ccccc2)cc1` [compound 2], the inhibition at 50 µM in data set [4] stood at 64 ± 5.1%.

With `NC(=O)c1cccc(NC(=O)[C@@H](NC(=O)c2ccc(Nc3ccccc3)cc2)c2ccc(OCc3ccccc3)cc2)c1` [compound 7], the EC50 (commonly the concentration giving half of the maximal effect) in data set [5] came out at 0.7 µM. Further, the inhibition at 50 µM in [6] stood at 99%. Moreover, the inhibition at 12.5 µM in data set [7] turned out to be 93%. Further, the CC50 (as a rule, the concentration giving 50% cytotoxicity) in “in vitro [8]” was no less than 100 µM. For the same compound, the inhibition at 25 µM in the data set with DENV-2 is less than 10%.

For the compound `CC(CC(=O)N[C@H](C(=O)Nc1cccc(C(N)=O)c1)c1ccc(OCc2ccccc2)cc1)CC(C)(C)C` (stereo partly shown) [compound 16], in data set [3], the half-inhibitory concentration (IC50) – broadly, the concentration needed to halve the response being measured – is 11 µM. In data set [5], this compound showed an EC50 of 11 µM. The inhibition at 12.5 µM in data set [9] amounted to 61%. Also, in the data set “in vitro [10]”, the CC50 was no less than 100 µM. The inhibition at 25 µM in the data set with DENV-2 is 98%.

With `CCCCC(CC)C(=O)N[C@H](C(=O)Nc1cccc(C(N)=O)c1)c1ccc(OCc2ccccc2)cc1` (stereo partly shown) [compound 20, 20], the 50% inhibitory concentration (IC50) in data set [11] was 22 µM. Moreover, the inhibition at 12.5 µM in [9] was determined as 63%. The EC50 in data set [12] is 11 µM. The cytotoxic concentration (CC50) in the data set “in vitro [10]” was greater than 50 µM. Moreover, in the data set with DENV-2, the inhibition at 25 µM turned out to be 90%.

The compound `NC(=O)c1cccc(NC(=O)[C@@H](NC(=O)c2cc(O)n(-c3ccccc3)n2)c2ccc(OCc3ccccc3)cc2)c1` [compound 27] registered a half-maximal inhibitory concentration (IC50) in data set [3] of 30 µM. Besides, the inhibition at 12.5 µM in data set [9] was found to be 24%. Moreover, the half-maximal cytotoxic concentration (CC50) in the data set “in vitro [10]” is greater than 50 µM.

With `CC(C(=O)N[C@H](C(=O)Nc1cccc(C(N)=O)c1)c1ccc(OCc2ccccc2)cc1)c1ccccc1` (stereo partly shown) [compound 28, 28], the inhibition at 50 µM in data set [13] was 83%. Further, the concentration for half-maximal inhibition (IC50) in [14] worked out at 17 µM. Moreover, the inhibition at 12.5 µM in [15] was determined as 77%. In data set [16], this compound came in with an EC50 of 8 µM. Besides, the cytotoxic concentration (CC50) in the data set “in vitro [17]” is greater than 50 µM.

In the case of `Cc1onc(-c2ccc(F)cc2)c1C(=O)N[C@H](C(=O)Nc1cccc(C(N)=O)c1)c1ccc(OCc2ccccc2)cc1` [compound 29, 29], the inhibition at 50 µM in data set [13] worked out at 82%. Further, the 50% inhibitory concentration (IC50) in data set [14] came out at 14 µM. Moreover, in data set [15], the inhibition at 12.5 µM was 64%. In the data set “in vitro [17]”, the 50% cytotoxic concentration (CC50) is greater than 50 µM.

With `COc1cc(CC(=O)N[C@H](C(=O)Nc2cccc(C(N)=O)c2)c2ccc(OCc3ccccc3)cc2)cc(OC)c1OC` [compound 31], in data set [4], the inhibition at 50 µM is 76%. The inhibition at 12.5 µM in data set [15] worked out at 75%. In addition, the concentration for a half-maximal effect (EC50) in [16] (read-out: DENV2proHeLa EC50, inhibitor) stood at 12 µM. In “in vitro [17]”, this compound showed a CC50 greater than 50 µM. Besides, the inhibition at 25 µM with DENV-2 is 11%.

As for `NC(=O)c1cccc(NC(=O)[C@@H](NC(=O)c2ccc(Oc3ccccc3)nc2)c2ccc(OCc3ccccc3)cc2)c1` [compound 33], in data set [3], inhibition was half-maximal at 34 µM (IC50). Also, in data set [5], the 50% effective concentration (EC50) is 8.8 µM. Moreover, the inhibition at 50 µM in data set [13] is 70%. Further, the inhibition at 12.5 µM in data set [15] amounted to 55%. The compound further displayed a CC50 in “in vitro [17]” greater than 100 µM.

Regarding `CC(C)CCC(=O)N1CCC(C(=O)N[C@H](C(=O)Nc2cccc(C(N)=O)c2)c2ccc(OCc3ccccc3)cc2)CC1` [compound 34, 34], the inhibition at 50 µM in data set [13] came out at 69%. Further, the inhibition at 12.5 µM in [15] was 53%. This compound also yielded an EC50 in data set [16] of 11 µM. Also, the CC50 in the data set “in vitro [17]” was greater than 100 µM.

Take `Cc1nc(-c2ccncc2)sc1C(=O)N[C@H](C(=O)Nc1cccc(C(N)=O)c1)c1ccc(OCc2ccccc2)cc1` [compound 35, 35]: in data set [13], the inhibition at 50 µM is 69%. Besides, the inhibition at 12.5 µM in data set [15] worked out at 78%. This compound registered a half-maximal cytotoxic concentration (CC50) in “in vitro [17]” greater than 50 µM.

As for `NC(=O)c1cccc(NC(=O)[C@@H](NC(=O)OCc2ccccc2)c2ccc(OCc3ccccc3)cc2)c1` [compound 36, 36], the half-maximal inhibitory concentration (IC50) in data set [14] came out at 28 µM. In addition, the inhibition at 12.5 µM in [15] is 60%. In [16], this compound came in with an EC50 of 5 µM. The compound also returned a cytotoxic concentration (CC50) in “in vitro [17]” of no less than 50 µM.

With `NC(=O)c1cccc(NC(=O)C(NC(=O)c2ccccc2)c2ccc(OCc3ccccc3)cc2)c1` (stereo not shown) [compound 42, 42], the inhibition at 50 µM in data set [13] was determined as 56%. The inhibition at 12.5 µM in [15] is 80%. The 50% cytotoxic concentration (CC50) in the data set “in vitro [17]” was greater than 100 µM.

On to `NC(=O)c1cccc(NC(=O)C(Cc2ccc(OCc3ccc4ccccc4c3)cc2)NC(=O)c2ccc(Oc3ccccc3)cc2)c1` (stereo not shown) [compound 63], for which half-maximal inhibition in data set [3] (IC50) required 4.8 µM. In data set [5], the EC50 was found to be 5.1 µM. In addition, in [18], the inhibition at 50 µM turned out to be 100%. In addition, the inhibition at 12.5 µM in data set [19] is 82%. The midpoint of cytotoxicity in the data set “in vitro [20]”, the CC50, lay at 16 µM.

`NC(=O)c1cccc(NC(=O)C(Cc2ccc3ccccc3c2)NC(=O)c2ccc(Oc3ccccc3)cc2)c1` (stereo not shown) [compound 65]: in data set [3], half-maximal inhibition (IC50) was put at 5.9 µM. Besides, in data set [5], the EC50 is 7.4 µM. Moreover, the inhibition at 12.5 µM in data set [19] was 55%. In “in vitro [20]”, the 50% cytotoxic concentration (CC50) is greater than 50 µM.

For `CC(C(=O)NC(Cc1c[nH]c2ccccc12)C(=O)Nc1cccc(C(N)=O)c1)c1ccc2c(c1)[nH]c1ccc(Cl)cc12` (stereo not shown) [compound 67, 67], in data set [18], the inhibition at 50 µM turned out to be 91%. Moreover, the inhibition at 12.5 µM in [19] was 91%. The compound further came in with a 50% cytotoxic concentration (CC50) in the data set “in vitro [20]” of 16 µM.

For the compound `NC(=O)c1cccc(NC(=O)C(Cc2ccc(NCc3ccccc3)cc2)NC(=O)c2ccc(Oc3ccccc3)cc2)c1` (stereo not shown) [compound 68], the IC50 in data set [3] turned out to be 15 µM. This compound came in with a cytotoxic concentration (CC50) in the data set “in vitro [20]” greater than 50 µM.

Regarding `NC(=O)c1cccc(NC(=O)C(Cc2c[nH]c3ccccc23)NC(=O)c2ccc(Oc3ccccc3)cc2)c1` (stereo not shown) [compound 69, 69], in data set [18], the inhibition at 50 µM worked out at 80%. Also, the inhibition at 12.5 µM in data set [19] amounted to 65%. In “in vitro [20]”, this compound displayed a CC50 greater than 50 µM.
